Test system: various cancers
Test: Anti-proliferative effect of combinations, in vitro and in vivo
Excerpt: These cancers include, but are not limited to, lung cancer, small cell lung cancer, non-small cell lung cancer, colon cancer, breast cancer, pancreatic cancer, prostate cancer, renal cancer, cervical cancer, brain cancer, gastric/stomach cancer, uterine cancer, intestinal cancer, hepatic cancer, chronic myelogenous leukemia, melanoma, ovarian cancer, translocation-associated renal cell carcinoma (RCC), alveolar soft part sarcoma (ASPS), clear cell sarcoma (CCS), and hepatocellular carcinoma. The anti-proliferative effects of these combinational treatments are increased/enhanced in cell proliferative disorders and cancers in which the effected cells constitutively express or over-express c-Met. In addition, synergistic anti-proliferative effects are shown by (−)-trans-3-(5,6-dihydro-4H-pyrrolo[3,2,1-ij]quinolin-1-yl)-4-(1H-indol-3-yl) pyrrolidine-2,5-dione in combination with sorafenib in breast cancer, cervical cancer, lung cancer, small cell lung cancer, non-small cell lung cancer, melanoma, colon cancer, pancreatic cancer, renal cancer and gastric/stomach cancer; by (−)-trans-3-(5,6-dihydro-4H-pyrrolo[3,2,1-ij]quinolin-1-yl)-4-(1H-indol-3-yl)pyrrolidine-2,5-dione in combination with sunitinib in gastric/stomach cancer; by (−)-trans-3-(5,6-dihydro-4H-pyrrolo[3,2,1-ij]quinolin-1-yl)-4-(1H-indol-3-yl)pyrrolidine-2,5-dione in combination with erlotinib in lung cancer, small cell lung cancer, non-small cell lung cancer and colon cancer; and by (−)-trans-3-(5,6-dihydro-4H-pyrrolo[3,2,1-ij]quinolin-1-yl)-4-(1H-indol-3-yl)pyrrolidine-2,5-dione in combination with cisplatin in pancreatic cancer.

SMILES: O=C1NC(=O)[C@@H](c2cn3c4c(cccc24)CCC3)[C@@H]1c1c[nH]c2ccccc12 [Agent A, (−)-trans-3-(5,6-dihydro-4H-pyrrolo[3,2,1-ij]quinolin-1-yl)-4-(1H-indol-3-yl)pyrrolidine-2,5-dione]
- anti-proliferative effects in combination with sorafenib (breast, cervical, lung, small cell lung, non-small cell lung cancer, melanoma, colon, pancreatic, renal and gastric/stomach cancer): synergistic
- anti-proliferative effects in combination with sunitinib (gastric/stomach cancer): synergistic
- anti-proliferative effect in combination (in combination with sorafenib, sunitinib, erlotinib, gefitinib, cisplatin, carboplatin or capecitabine, various cancers, in vitro and in vivo): at least an additive
- anti-proliferative effects in combination with erlotinib (lung, small cell lung, non-small cell lung and colon cancer): synergistic
- anti-proliferative effects in combination with cisplatin (pancreatic cancer): synergistic
